What was measured:
[1] = test system: hippocampal subgranular neurogenic niche; assay: Short-term (4 days) in vivo activation of the hippocampal subgranular neurogenic niche (BrdU); set-up: species or system C57BL/6 mice; settings: antagonist 0.2 μg/animal with DMT 0.1 μg/animal
Method: Adult male C57BL/6 mice (obtained from Charles River Labs) were injected in the lateral ventricle (coordinates: from bregma, posterior −1 mm, lateral +1.3 mm, ventral +2 mm, according to the atlas of Paxinos and Franklin (Paxinos G, Franklin KBJ. The Mouse Brain in Stereotaxic Coordinates. 4. San Diego: Academic Press; 2012)), using a stereotaxic apparatus (Kopf Instruments, CA) with DMT (0.1 μg/animal), alone or in combination with the selective Sigma-1 BD1063 (BD, 0.2 μg/animal, Sigma, catalog number SML0276), the mixed 5-HT2A/1A receptor antagonist methiothepin (Met, 0.2 μg/animal, Sigma catalog number M149), or the selective 5-HT1A receptor antagonist WAY100635 (WAY, 0.2 μg/animal, ABCAM catalog number ab120550). Prior to the injection, mice were anesthetized by intraperitoneal injection of ketamine (60 mg/kg) and medetomidine (0.125 mg/kg). […] The boundaries of these nervous system regions were determined with reference to internal anatomic landmarks (Paxinos G, Franklin KBJ. The Mouse Brain in Stereotaxic Coordinates. 4. San Diego: Academic Press; 2012). For DG area selection, images were analyzed using computer-assisted image analysis software (Soft Imaging System Corporation, Lakewood, Colo., http://www.soft-imaging.com). Positive cells, which intersected the uppermost focal plane (exclusion plane) and the lateral exclusion boundaries of the counting frames, were not counted. […]

[2] = test system: subgranular zone of the hippocampus; assay: Long-term (21 days) in vivo neurogenesis in the subgranular zone of the hippocampus (BrdU/NeuN, BrdU/DCX); set-up: species or system C57BL/6 mice; settings: antagonist 0.2 μg/animal with DMT 0.1 μg/animal, every other day for 3 weeks
Method: Adult male C57BL/6 mice (obtained from Charles River Labs, Barcelona, Spain) were injected every other day for 3 weeks with DMT (0.1 μg/animal), alone or in combination with the selective Sigma-1 BD1063 antagonist (BD, 0.2 μg/animal, Sigma, Catalog number SML0276), the mixed 5-HT2A/1A receptor antagonist methiothepin (Met, 0.2 μg/animal, Sigma, Catalog number M149), or the selective 5-HT1A receptor antagonist WAY100635 (WAY, 0.2 μg/animal, ABCAM catalog number ab120550). On day 1 of treatment, animals were intraperitoneally injected with the proliferation marker 5-bromo-2-deoxyuridine (BrdU, 50 mg/kg, Sigma, Catalog number B5002) and sacrificed on day 21. Following anesthesia, the animals were perfused transcardially with 4% paraformaldehyde, and the brains obtained and post-fixed in the same solution at 4-8° C. overnight. They were subsequently cryoprotected, frozen, and finally cut into 30 μm coronal sections in a cryostat. Free-floating sections were immunostained using immunofluorescence analysis. For BrdU detection, samples were first incubated with 2 M HCl for 30 minutes at 37° C. before blocking 1 hour in PBS containing 5% normal serum, 0.1 M lysine, and 0.1% Triton X-100. Sections were then incubated with anti-BrdU mouse monoclonal antibody (DAKO, Barcelona, Spain, Catalog number M0744) combined with a neuronal marker, anti-neuN rabbit antibody (Abcam, Cambridge, UK. Catalog number ABN78) or an anti-double courtin (DCX) goat antibody (Santa Cruz Biotech. USA) at 4° C. overnight, washed three times and incubated with Alexa Fluor-488 goat anti-mouse and Alexa 647-goat anti-rabbit or -horse anti-goat secondary antibodies (Molecular Probes, Madrid, Spain), respectively, for 1 hour at room temperature. After rinses, sections were mounted with Vectashield.

D2 = D2 (Homo sapiens, UniProt P14416); settings: D2 Antag; cited from earlier work
5HT2A = 5HT2A (Homo sapiens, UniProt P28223); settings: 5HT2A Antagonist; cited from earlier work
Sequence of 5HT2A (P28223 whole entry): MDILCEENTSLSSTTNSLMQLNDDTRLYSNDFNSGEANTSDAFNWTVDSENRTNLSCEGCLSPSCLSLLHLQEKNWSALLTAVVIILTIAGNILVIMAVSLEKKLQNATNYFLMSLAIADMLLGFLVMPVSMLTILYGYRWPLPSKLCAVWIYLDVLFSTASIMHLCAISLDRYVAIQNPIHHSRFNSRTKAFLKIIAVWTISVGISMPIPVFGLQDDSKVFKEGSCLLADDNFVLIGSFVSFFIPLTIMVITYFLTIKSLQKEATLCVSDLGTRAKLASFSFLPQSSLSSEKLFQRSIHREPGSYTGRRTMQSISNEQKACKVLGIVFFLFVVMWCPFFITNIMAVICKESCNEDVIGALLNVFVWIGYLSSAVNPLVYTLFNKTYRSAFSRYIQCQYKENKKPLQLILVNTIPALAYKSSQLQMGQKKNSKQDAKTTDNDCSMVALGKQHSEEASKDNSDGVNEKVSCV

Sequence of D2 (P14416 whole entry): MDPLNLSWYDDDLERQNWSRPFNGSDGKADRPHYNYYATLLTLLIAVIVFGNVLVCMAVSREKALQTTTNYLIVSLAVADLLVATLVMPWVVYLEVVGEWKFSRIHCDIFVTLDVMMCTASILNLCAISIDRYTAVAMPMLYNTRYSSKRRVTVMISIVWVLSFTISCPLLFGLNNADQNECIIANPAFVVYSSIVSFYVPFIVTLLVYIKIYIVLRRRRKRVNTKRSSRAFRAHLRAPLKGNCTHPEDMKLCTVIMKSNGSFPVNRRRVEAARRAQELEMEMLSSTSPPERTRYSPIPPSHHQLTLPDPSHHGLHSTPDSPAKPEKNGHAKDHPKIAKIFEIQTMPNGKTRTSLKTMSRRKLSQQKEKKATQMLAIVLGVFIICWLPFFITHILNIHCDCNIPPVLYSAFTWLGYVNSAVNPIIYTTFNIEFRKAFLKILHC

| Structure (SMILES) | blockade of DMT stimulatory effects in vivo [1] | blockade of the DMT neurogenic effect in vivo [2] | Ki (D2) [nM] | Ki (5HT2A) [nM] |
| --- | --- | --- | --- | --- |
| CN1CCN(CCc2ccc(Cl)c(Cl)c2)CC1 [BD1063] | completely blocked | blocked | – | – |
| CCNC(=O)N1CCN(CCCC(c2ccc(F)cc2)c2ccc(F)cc2)CC1 [Amperozide] | – | – | 140 | 12 |
